Results on six compounds are retold here after ChEMBL document CHEMBL5370622 (J Nat Prod, 2023).

The nature of experiment [1]: Inhibition of human full length […] gene fusion of J-PKAc alpha chimeric protein expressed in Escherichia coli BL21 (DE3) cells using CREB KRREILSRRPSYR-biotinylated peptide as substrate incubated for 45 mins in presence of ATP by ELISA.
The nature of experiment [2]: Binding affinity to human full length […] gene fusion of J-PKAc alpha chimeric protein expressed in Escherichia coli BL21 (DE3) cells assessed as dissociation constant by MST assay.
The target in experiment [3] is cAMP-dependent protein kinase catalytic subunit alpha (Homo sapiens, UniProt P17612). Put plainly: Inhibition of wild type PKAc alpha (unknown origin) using CREB KRREILSRRPSYR-biotinylated peptide as substrate incubated for 45 mins in presence of ATP by ELISA.
The target in experiment [4] is T1, Dual specificity tyrosine-phosphorylation-regulated kinase 3 (Homo sapiens) (UniProt O43781).
T1 sequence (whole entry): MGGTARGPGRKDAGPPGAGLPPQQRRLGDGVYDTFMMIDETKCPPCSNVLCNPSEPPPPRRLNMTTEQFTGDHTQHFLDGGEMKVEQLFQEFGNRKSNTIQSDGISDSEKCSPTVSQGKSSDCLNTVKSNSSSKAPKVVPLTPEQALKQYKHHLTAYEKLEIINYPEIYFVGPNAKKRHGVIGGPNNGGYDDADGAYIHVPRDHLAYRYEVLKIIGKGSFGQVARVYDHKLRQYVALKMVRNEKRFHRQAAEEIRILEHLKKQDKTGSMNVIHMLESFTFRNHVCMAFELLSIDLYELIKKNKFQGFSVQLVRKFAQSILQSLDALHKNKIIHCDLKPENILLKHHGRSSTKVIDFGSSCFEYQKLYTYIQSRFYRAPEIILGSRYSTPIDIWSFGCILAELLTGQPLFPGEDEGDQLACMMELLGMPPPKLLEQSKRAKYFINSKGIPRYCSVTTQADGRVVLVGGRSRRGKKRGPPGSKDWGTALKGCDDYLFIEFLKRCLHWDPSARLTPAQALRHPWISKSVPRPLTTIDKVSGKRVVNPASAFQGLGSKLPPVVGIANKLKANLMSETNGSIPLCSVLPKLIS
Put plainly: Inhibition of human DYRK3 at 50 nM in presence of ATP by radiometric hotspot kinase assay relative to control.

Experiment [5] concerns the target Dual specificity tyrosine-phosphorylation-regulated kinase 1A (Homo sapiens) (UniProt Q13627). Description: Inhibition of human DYRK1A at 50 nM in presence of ATP by radiometric hotspot kinase assay relative to control.
In experiment [6] the target is Dual specificity tyrosine-phosphorylation-regulated kinase 1B (Homo sapiens) (UniProt Q9Y463). Put plainly: Inhibition of human DYRK1B at 50 nM in presence of ATP by radiometric hotspot kinase assay relative to control.
Chain of Dual specificity tyrosine-phosphorylation-regulated kinase 1B (Homo sapiens) (Q9Y463 whole entry, looked up): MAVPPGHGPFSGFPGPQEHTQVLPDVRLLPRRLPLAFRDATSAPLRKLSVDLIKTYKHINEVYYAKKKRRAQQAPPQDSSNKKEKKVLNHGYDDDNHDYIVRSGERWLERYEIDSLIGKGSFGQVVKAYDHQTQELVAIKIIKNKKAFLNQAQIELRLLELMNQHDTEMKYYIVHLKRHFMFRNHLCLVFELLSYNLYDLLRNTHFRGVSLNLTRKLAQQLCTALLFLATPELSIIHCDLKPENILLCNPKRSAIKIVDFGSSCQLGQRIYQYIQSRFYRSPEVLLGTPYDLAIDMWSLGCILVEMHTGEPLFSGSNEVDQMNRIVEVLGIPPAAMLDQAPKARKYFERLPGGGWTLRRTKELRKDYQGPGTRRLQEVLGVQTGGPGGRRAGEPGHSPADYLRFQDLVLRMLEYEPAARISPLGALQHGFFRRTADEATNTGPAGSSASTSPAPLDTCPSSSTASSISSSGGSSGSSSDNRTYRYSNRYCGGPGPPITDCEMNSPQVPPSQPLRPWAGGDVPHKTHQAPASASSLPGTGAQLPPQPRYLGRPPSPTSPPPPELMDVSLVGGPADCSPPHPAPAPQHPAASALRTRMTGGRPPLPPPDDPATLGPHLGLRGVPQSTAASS
Experiment [7] deals with T2, Dual specificity tyrosine-phosphorylation-regulated kinase 2 (Homo sapiens) (UniProt Q92630).
T2 sequence (whole entry): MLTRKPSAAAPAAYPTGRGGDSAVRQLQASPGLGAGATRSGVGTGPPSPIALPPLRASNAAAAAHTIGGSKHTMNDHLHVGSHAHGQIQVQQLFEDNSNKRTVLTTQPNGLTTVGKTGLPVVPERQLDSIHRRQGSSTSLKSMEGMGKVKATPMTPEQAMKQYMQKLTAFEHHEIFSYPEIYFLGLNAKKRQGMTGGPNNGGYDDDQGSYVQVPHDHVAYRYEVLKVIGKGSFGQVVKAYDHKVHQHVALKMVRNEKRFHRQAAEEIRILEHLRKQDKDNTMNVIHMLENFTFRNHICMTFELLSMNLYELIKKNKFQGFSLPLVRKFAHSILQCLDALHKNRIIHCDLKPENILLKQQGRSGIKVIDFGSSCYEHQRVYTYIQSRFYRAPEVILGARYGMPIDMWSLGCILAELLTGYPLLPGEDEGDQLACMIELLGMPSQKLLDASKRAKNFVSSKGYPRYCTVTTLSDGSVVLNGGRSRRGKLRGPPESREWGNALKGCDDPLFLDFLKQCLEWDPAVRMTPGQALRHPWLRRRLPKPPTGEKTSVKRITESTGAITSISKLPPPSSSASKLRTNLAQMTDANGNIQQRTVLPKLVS
Description: Inhibition of human DYRK2 at 50 nM in presence of ATP by radiometric hotspot kinase assay relative to control.

A value given as a limit tells only on which side of the number the result lay.

As to `Cn1cncc1C1=CN(c2ncnc3[nH]c(=O)[nH]c23)CCS1`, the IC50 in experiment [1] was 79 µM; in experiment [3], 90 µM. Besides, in experiment [2], the dissociation constant (Kd) stood at 37 µM.
As for `Cn1cncc1C1=CN(c2ncnc3[nH]cnc23)CC[S+]1[O-]` (configuration not stated), the IC50 in experiment [1] was over 200 µM.
Regarding `Cn1cnc(Br)c1C1=CN(c2ncnc3[nH]cnc23)CCS1`, the values for the IC50 in experiment [1] and in experiment [3] were 1.04 µM and 1.1 µM, respectively. Moreover, the inhibition was found to be 49% in experiment [4], 61% in experiment [5], 49% in experiment [6] and 56% in experiment [7]. For the same compound, in experiment [2], the Kd worked out at 3 µM.
For the compound `Cn1c(Br)nc(Br)c1C1=CN(c2ncnc3[nH]cnc23)CCS1`, the IC50 in experiment [1] is over 200 µM.
In the case of `Cn1cncc1C1=CN(c2ncnc3[nH]cnc23)CCS1`, the inhibition in experiment [4] was determined as 16%; in experiment [5], 23%; in experiment [6], 23%; in experiment [7], 21%.
`Cn1cncc1C1=CN(c2ncnc3[nH]cnc23)CCS1(=O)=O`: the IC50 in experiment [1] is over 200 µM.
